According to ChEMBL document CHEMBL1909046, “DrugMatrix in vitro pharmacology data”:

Assays:
[1] = molecular target: D(1A) dopamine receptor (Homo sapiens, UniProt P21728); assay: DRUGMATRIX: Dopamine D1 radioligand binding (ligand: [3H] SCH-23390); assay type: cell membranes, CHO, Membrane; details: Not Active = under 50% inhibition at 10 µM
[2] = molecular target: C-C chemokine receptor type 5 (Homo sapiens, UniProt P51681); assay type: cell membranes, Membrane; details: hek293; note: in other assays of this panel Not Active means under 50% inhibition at 10 µM
Sequence of C-C chemokine receptor type 5 (P51681 whole entry): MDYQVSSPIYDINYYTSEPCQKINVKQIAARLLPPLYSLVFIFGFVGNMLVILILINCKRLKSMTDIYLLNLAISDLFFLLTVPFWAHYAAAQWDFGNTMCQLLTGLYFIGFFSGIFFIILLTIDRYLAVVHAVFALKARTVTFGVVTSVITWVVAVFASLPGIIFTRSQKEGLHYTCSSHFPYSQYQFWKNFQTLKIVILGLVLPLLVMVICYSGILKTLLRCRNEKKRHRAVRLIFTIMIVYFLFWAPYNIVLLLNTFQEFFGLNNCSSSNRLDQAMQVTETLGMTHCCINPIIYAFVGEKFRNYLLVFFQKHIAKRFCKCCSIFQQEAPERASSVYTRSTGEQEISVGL

[3] = DRUGMATRIX: Phosphodiesterase PDE4 enzyme inhibition (substrate: [3H]cAMP + cAMP); details: u-937, Not Active = under 50% inhibition at 10 µM
[4] = molecular target: Receptor tyrosine-protein kinase erbB-2 (Homo sapiens, UniProt P04626); assay: biochemical; assay type: cell-based, Insect cells;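 note: inhibition of HER2 kinase enzyme activity, measured with Poly(Glu:Tyr) as the phosphorylation substrate; in other assays of this panel Not Active means under 50% inhibition at 10 µM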
[5] = molecular target: Tyrosine-protein kinase Fyn (Homo sapiens, UniProt P06241); assay: biochemical; assay type: cell-based, Insect cells;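 note: enzymatic inhibition of Fyn kinase activity measured with Poly(Glu:Tyr) as the phosphorylation substrate; in other assays of this panel Not Active means under 50% inhibition at 10 µM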
Sequence of Tyrosine-protein kinase Fyn (P06241 whole entry): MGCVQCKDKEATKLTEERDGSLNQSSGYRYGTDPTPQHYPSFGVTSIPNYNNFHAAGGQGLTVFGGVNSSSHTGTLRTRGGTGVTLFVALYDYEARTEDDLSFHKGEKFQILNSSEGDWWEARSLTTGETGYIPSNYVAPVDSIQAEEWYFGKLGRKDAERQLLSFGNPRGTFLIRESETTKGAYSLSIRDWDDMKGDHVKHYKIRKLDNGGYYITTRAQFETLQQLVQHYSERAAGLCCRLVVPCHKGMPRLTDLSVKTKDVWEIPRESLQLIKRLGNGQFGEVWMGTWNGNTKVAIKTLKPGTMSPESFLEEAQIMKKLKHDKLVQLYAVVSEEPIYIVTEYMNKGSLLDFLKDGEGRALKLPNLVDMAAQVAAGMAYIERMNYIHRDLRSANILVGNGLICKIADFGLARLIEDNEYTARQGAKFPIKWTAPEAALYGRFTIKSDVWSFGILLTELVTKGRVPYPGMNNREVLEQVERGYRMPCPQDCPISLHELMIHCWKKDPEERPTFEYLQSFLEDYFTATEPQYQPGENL

[6] = molecular target: Mitogen-activated protein kinase 14 (Homo sapiens, UniProt Q16539); parameters: species or system Escherichia coli;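 note: inhibition of p38alpha enzyme activity in a biochemical kinase assay, with myelin basic protein serving as substrate; in other assays of this panel Not Active means under 50% inhibition at 10 µM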
Sequence of Mitogen-activated protein kinase 14 (Q16539 whole entry): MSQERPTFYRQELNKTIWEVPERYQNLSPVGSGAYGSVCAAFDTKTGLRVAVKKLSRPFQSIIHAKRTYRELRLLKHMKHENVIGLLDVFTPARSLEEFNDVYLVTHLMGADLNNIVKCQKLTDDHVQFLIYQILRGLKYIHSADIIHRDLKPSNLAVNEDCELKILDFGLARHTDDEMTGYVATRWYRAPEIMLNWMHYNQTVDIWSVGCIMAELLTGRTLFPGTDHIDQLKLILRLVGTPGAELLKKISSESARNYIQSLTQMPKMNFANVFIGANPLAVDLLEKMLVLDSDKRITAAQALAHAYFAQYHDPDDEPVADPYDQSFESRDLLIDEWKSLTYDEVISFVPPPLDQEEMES

Sequence of D(1A) dopamine receptor (P21728 whole entry): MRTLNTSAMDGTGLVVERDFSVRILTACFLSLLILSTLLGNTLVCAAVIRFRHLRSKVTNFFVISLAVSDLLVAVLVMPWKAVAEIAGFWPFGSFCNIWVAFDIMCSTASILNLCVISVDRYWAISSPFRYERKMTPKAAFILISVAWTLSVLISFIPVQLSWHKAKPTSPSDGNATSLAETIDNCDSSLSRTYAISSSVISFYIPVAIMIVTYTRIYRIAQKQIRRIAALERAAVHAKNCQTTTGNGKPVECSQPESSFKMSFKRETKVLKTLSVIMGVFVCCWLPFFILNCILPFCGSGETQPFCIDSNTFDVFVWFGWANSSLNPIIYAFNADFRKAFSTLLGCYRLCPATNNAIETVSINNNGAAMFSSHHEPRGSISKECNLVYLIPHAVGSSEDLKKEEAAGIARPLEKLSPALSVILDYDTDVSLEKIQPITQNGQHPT

Molecule	IC50 ([1]; cho)	IC50 [2]	IC50 [3]	Ki [3]	IC50 ([4]; insect cells)	IC50 ([5]; insect cells)	IC50 [6]	IC50 ([5]; read-out: IC50) [µM]	Ki ([1]; cho)	Ki [2]	Ki ([4]; insect cells)	Ki ([5]; insect cells)	Ki [6]	IC50 ([1]; read-out: IC50) [µM]	Ki ([1]; read-out: Ki) [µM]	IC50 ([3]; read-out: IC50) [µM]	IC50 ([4]; read-out: IC50) [µM]	IC50 ([4]; insect cells, read-out: IC50) [µM]
CC(C)CN(C[C@@H](O)[C@H](Cc1ccccc1)NC(=O)O[C@H]1CCOC1)S(=O)(=O)c1ccc(N)cc1	Not Active	Not Active	Not Active	Not Active	Not Active	Not Active	Not Active	–	–	–	–	–	–	–	–	–	–	–
c1ccc(Nc2ccc(Nc3ccccc3)cc2)cc1	Not Active	Not Active	Not Active	Not Active	Not Active	Not Active	Not Active	–	–	–	–	–	–	–	–	–	–	–
COc1cc2c3cc1Oc1cc(ccc1O)C[C@@H]1c4c(cc(OC)c(O)c4Oc4ccc(cc4)C[C@@H]3N(C)CC2)CC[N+]1(C)C.[Cl-]	Not Active	Not Active	Not Active	Not Active	Not Active	Not Active	Not Active	–	–	–	–	–	–	–	–	–	–	–
NC(=O)N1c2ccccc2CCc2ccccc21	Not Active	Not Active	Not Active	Not Active	Not Active	Not Active	Not Active	–	–	–	–	–	–	–	–	–	–	–
O=C1CC[C@@H](N2C(=O)c3ccccc3C2=O)C(=O)N1	Not Active	Not Active	Not Active	Not Active	Not Active	Not Active	Not Active	–	–	–	–	–	–	–	–	–	–	–
Cc1onc(O)c1CC(N)C(=O)O (racemic) [(R,S)-AMPA]	Not Active	Not Active	Not Active	Not Active	Not Active	Not Active	Not Active	–	–	–	–	–	–	–	–	–	–	–
Cc1ccc2cc3c(ccc4ccccc43)c3c2c1CC3 [3-METHYLCHOLANTHRENE]	Not Active	Not Active	Not Active	Not Active	Not Active	–	Not Active	25.2	–	–	–	–	–	–	–	–	–	–
CC[C@@]1(O)C[C@H](O[C@H]2C[C@H](N(C)C)[C@H](O[C@H]3C[C@H](O)[C@H](O[C@H]4CCC(=O)[C@H](C)O4)[C@H](C)O3)[C@H](C)O2)c2c(cc3c(c2O)C(=O)c2c(O)cccc2C3=O)[C@H]1C(=O)OC [ACLARUBICIN]	Not Active	Not Active	Not Active	Not Active	Not Active	Not Active	Not Active	–	–	–	–	–	–	–	–	–	–	–
Nc1nc2c(ncn2COCCO)c(=O)[nH]1 [ACYCLOVIR]	Not Active	Not Active	Not Active	Not Active	Not Active	Not Active	Not Active	–	–	–	–	–	–	–	–	–	–	–
Cc1c(C)c2c(c(C)c1O)CC[C@@](C)(CCC[C@H](C)CCC[C@H](C)CCCC(C)C)O2 [ALPHA-TOCOPHEROL]	Not Active	Not Active	Not Active	Not Active	Not Active	Not Active	Not Active	–	–	–	–	–	–	–	–	–	–	–
CN(C)c1nc(N(C)C)nc(N(C)C)n1 [ALTRETAMINE]	Not Active	Not Active	Not Active	Not Active	Not Active	Not Active	Not Active	–	–	–	–	–	–	–	–	–	–	–
Nc1c(Br)cc(Br)cc1CN[C@H]1CC[C@H](O)CC1 [AMBROXOL]	Not Active	Not Active	Not Active	Not Active	Not Active	Not Active	Not Active	–	–	–	–	–	–	–	–	–	–	–
NCCCCCC(=O)O [AMINOCAPROIC ACID]	Not Active	Not Active	Not Active	Not Active	Not Active	Not Active	Not Active	–	–	–	–	–	–	–	–	–	–	–
CCC1(c2ccc(N)cc2)CCC(=O)NC1=O (stereo not given) [AMINOGLUTETHIMIDE]	Not Active	Not Active	Not Active	Not Active	Not Active	Not Active	Not Active	–	–	–	–	–	–	–	–	–	–	–
Cc1ccc(/N=C/N(C)/C=N/c2ccc(C)cc2C)c(C)c1 [AMITRAZ]	Not Active	Not Active	Not Active	Not Active	Not Active	Not Active	Not Active	–	–	–	–	–	–	–	–	–	–	–
CCOC(=O)C1=C(COCCN)NC(C)=C(C(=O)OC)C1c1ccccc1Cl (stereo not given) [AMLODIPINE]	Not Active	Not Active	Not Active	Not Active	Not Active	Not Active	Not Active	–	–	–	–	–	–	–	–	–	–	–
COc1ccc(C[C@H]2NC[C@H](O)[C@H]2OC(C)=O)cc1 [ANISOMYCIN]	Not Active	Not Active	Not Active	Not Active	Not Active	Not Active	Not Active	–	Not Active	Not Active	Not Active	Not Active	Not Active	–	–	–	–	–
Nc1ncn([C@@H]2O[C@H](CO)[C@@H](O)[C@H]2O)c(=O)n1 [AZACITIDINE]	Not Active	Not Active	Not Active	Not Active	Not Active	Not Active	Not Active	–	–	–	–	–	–	–	–	–	–	–

Molecule	IC50 ([1]; cho)	IC50 [2]	IC50 [3]	Ki [3]	IC50 ([4]; insect cells)	IC50 ([5]; insect cells)	IC50 [6]	IC50 ([5]; read-out: IC50) [µM]	Ki ([1]; cho)	Ki [2]	Ki ([4]; insect cells)	Ki ([5]; insect cells)	Ki [6]	IC50 ([1]; read-out: IC50) [µM]	Ki ([1]; read-out: Ki) [µM]	IC50 ([3]; read-out: IC50) [µM]	IC50 ([4]; read-out: IC50) [µM]	IC50 ([4]; insect cells, read-out: IC50) [µM]
CN(C)C(=O)Oc1cc(OC(=O)N(C)C)cc(C(O)CNC(C)(C)C)c1 (stereo not given) [BAMBUTEROL]	Not Active	Not Active	Not Active	Not Active	Not Active	Not Active	Not Active	–	–	–	–	–	–	–	–	–	–	–
c1ccc2c(c1)c1cccc3ccc4cccc2c4c31 [BENZO[E]PYRENE]	Not Active	Not Active	Not Active	Not Active	Not Active	Not Active	Not Active	–	–	–	–	–	–	–	–	–	–	–
CNCCc1ccccn1 [BETAHISTINE]	Not Active	Not Active	Not Active	Not Active	Not Active	Not Active	Not Active	–	–	–	–	–	–	–	–	–	–	–
CC(C)C(Br)C(=O)NC(N)=O (stereo not given) [BROMISOVALUM]	Not Active	Not Active	Not Active	Not Active	Not Active	Not Active	Not Active	–	–	–	–	–	–	–	–	–	–	–
CCCC1O[C@@H]2C[C@H]3[C@@H]4CCC5=CC(=O)C=C[C@]5(C)[C@H]4[C@@H](O)C[C@]3(C)[C@]2(C(=O)CO)O1 (stereo not given in full) [BUDESONIDE]	Not Active	Not Active	Not Active	Not Active	Not Active	Not Active	Not Active	–	–	–	–	–	–	–	–	–	–	–
CC(NC(C)(C)C)C(=O)c1cccc(Cl)c1 (stereo not given) [BUPROPION]	Not Active	Not Active	Not Active	Not Active	Not Active	Not Active	Not Active	–	–	–	–	–	–	–	–	–	–	–
CN(Cc1ccc(C(C)(C)C)cc1)Cc1cccc2ccccc12 [BUTENAFINE]	Not Active	Not Active	Not Active	Not Active	Not Active	Not Active	Not Active	–	–	–	–	–	–	–	–	–	–	–
C[C@H](CS)C(=O)N1CCC[C@H]1C(=O)O [CAPTOPRIL]	Not Active	Not Active	Not Active	Not Active	Not Active	Not Active	Not Active	–	–	–	–	–	–	–	–	–	–	–
Cc1ccc(-c2cc(C(F)(F)F)nn2-c2ccc(S(N)(=O)=O)cc2)cc1 [CELECOXIB]	–	Not Active	–	–	Not Active	Not Active	Not Active	–	–	–	–	–	–	28	14	9.26	–	–
O=C(O)CCCc1ccc(N(CCCl)CCCl)cc1 [CHLORAMBUCIL]	Not Active	Not Active	Not Active	Not Active	Not Active	Not Active	Not Active	–	–	–	–	–	–	–	–	–	–	–
CN(C)CCCN1c2ccccc2Sc2ccc(Cl)cc21 [CHLORPROMAZINE]	–	Not Active	Not Active	Not Active	–	–	Not Active	8.68	–	–	–	–	–	–	–	–	19.4	–
C[C@H](CCC(=O)O)[C@H]1CC[C@H]2[C@@H]3[C@H](O)C[C@@H]4C[C@H](O)CC[C@]4(C)[C@H]3C[C@H](O)[C@]12C [CHOLIC ACID]	Not Active	Not Active	Not Active	Not Active	Not Active	Not Active	Not Active	–	–	–	–	–	–	–	–	–	–	–
Cc1cc(C2CCCCC2)n(O)c(=O)c1 [CICLOPIROX]	Not Active	Not Active	Not Active	Not Active	Not Active	Not Active	Not Active	–	–	–	–	–	–	–	–	–	–	–
CC1=C2C(=CO[C@H](C)[C@H]2C)C(O)=C(C(=O)O)C1=O [CITRININ]	Not Active	Not Active	Not Active	Not Active	Not Active	Not Active	Not Active	–	–	–	–	–	–	–	–	–	–	–
CC(C)(C)NCC(O)c1cc(Cl)c(N)c(Cl)c1 (stereo not given) [CLENBUTEROL]	Not Active	Not Active	Not Active	Not Active	Not Active	Not Active	Not Active	–	–	–	–	–	–	–	–	–	–	–
CCCN1C[C@H](CSC)C[C@@H]2c3cccc4[nH]cc(c34)C[C@H]21 [PERGOLIDE]	–	Not Active	Not Active	Not Active	Not Active	Not Active	Not Active	–	–	–	–	–	–	–	–	–	–	–
CADMIUM ACETATE	Not Active	Not Active	Not Active	Not Active	–	–	Not Active	–	Not Active	Not Active	–	–	Not Active	–	–	–	–	1.19
LEAD (II) ACETATE	Not Active	Not Active	Not Active	Not Active	Not Active	–	Not Active	–	Not Active	Not Active	Not Active	–	Not Active	–	–	–	–	–
